# US7727967B2, “Cyanooxime inhibitors of carbonyl reductase and methods of using said inhibitors in treatments involving anthracyclines” (Boise State University, priority 2006, dated 2010)
# Assays:
# carbonyl reductase [1] = molecular target: T1, carbonyl reductase (Homo sapiens, UniProt P16152); settings: cited from earlier work
# T1 sequence (P16152 1-277): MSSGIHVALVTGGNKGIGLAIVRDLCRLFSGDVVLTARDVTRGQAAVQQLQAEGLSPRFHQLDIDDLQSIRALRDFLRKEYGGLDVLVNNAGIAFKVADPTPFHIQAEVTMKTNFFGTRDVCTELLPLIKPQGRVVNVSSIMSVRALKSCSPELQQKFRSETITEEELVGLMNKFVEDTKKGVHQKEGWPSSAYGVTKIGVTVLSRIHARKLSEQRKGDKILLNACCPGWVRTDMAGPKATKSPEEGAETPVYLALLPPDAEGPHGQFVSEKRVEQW
# [2] = system: A549 adenocarcinoma cells; settings: coadministered with daunorubicin; cited from earlier work
# carbonyl reductase [3] = molecular target: T1, carbonyl reductase; assay: Inhibition of carbonyl reductase by arylcyanooximes (1/rate vs. 1/substrate, menadione and NADPH as varied substrates); assay type: biochemical; settings: for Ki: uncompetitive against both coenzyme and carbonyl substrates, range over the six compounds, read-out: Kii (intercept inhibition constant)
# Description: FIG. 6 describes inhibition patterns seen with inhibitors C1, C2, C3, C4, C5, and C6 wherein KII stands for the intercept inhibition constant.
# Six arylcyanooximes (C1, C2, C3, C4, C5, and C6) were tested as possible inhibitors for carbonyl reductase. (See the syntheses described earlier in this disclosure). […] See FIGS. 5 A and B, portraying the 1/rate vs. 1/substrate concentration taken with C5, with menadione and NADPH as the varied substrates, respectively. […] Therefore, while compositions comprising C5 are preferred, compositions comprising C1, C2, C3, C4, and/or C6 are also included in embodiments of the invention and are also expected by the inventors to be beneficial in the methods of the invention.
melting point,inhibition pattern against the carbonyl substrate (carbonyl reductase [3]),inhibition pattern against both coenzyme and carbonyl substrates (carbonyl reductase [3]),Ki (carbonyl reductase [3]),potency as inhibitor of carbonyl reductase (in words) (carbonyl reductase [3]),inhibition pattern against NADPH (carbonyl reductase [3]; NADPH as varied substrate (FIG. 5B)),inhibition pattern against menadione (carbonyl reductase [3]; menadione as varied substrate (FIG. 5A)),SMILES,potency as inhibitor of human carbonyl reductase (in words) (carbonyl reductase [1]),effect on cytotoxicity of daunorubicin [2]
–,–,–,–,–,–,–,"CNc1ncnc2c1c(-c1cccc(O)c1)cn2C(C)C [3-(7-isopropyl-4-(methylamino)-7H-pyrrolo[2,3-d]pyrimidin-5-yl)phenol]",potent inhibitor,enhance the cytotoxicity of daunorubicin
64 to 65 °C,uncompetitive inhibitors,uncompetitive inhibitors,10.8 to 72 µM,–,–,–,"N#CC(=NO)c1ccc(F)cc1F [C1, oximino(2,4-difluorophenyl)acetonitrile]",–,–
99 to 100 °C,uncompetitive inhibitors,uncompetitive inhibitors,10.8 to 72 µM,–,–,–,"N#CC(=NO)c1c(F)cccc1F [C2, oximino(2,6-difluorophenyl)acetonitrile]",–,–
64 to 67 °C,uncompetitive inhibitors,uncompetitive inhibitors,10.8 to 72 µM,–,–,–,"N#CC(=NO)c1cc(F)ccc1F [C3, oximino(2,5-difluorophenyl)acetonitrile]",–,–
151 °C,uncompetitive inhibitors,uncompetitive inhibitors,10.8 to 72 µM,potent inhibitor,uncompetitive inhibitor,uncompetitive inhibitor,"N#CC(=NO)c1ccc(Cl)cc1Cl [C5, oximino(2,4-dichlorophenyl)acetonitrile]",–,–
94 to 96 °C,uncompetitive inhibitors,uncompetitive inhibitors,10.8 to 72 µM,–,–,–,"N#CC(=NO)c1c(Cl)cccc1Cl [C6, oximino(2,6-dichlorophenyl)acetonitrile]",–,–

SMILES,melting point,inhibition pattern against the carbonyl substrate (carbonyl reductase [3]),inhibition pattern against both coenzyme and carbonyl substrates (carbonyl reductase [3]),Ki (carbonyl reductase [3]),potency as inhibitor of carbonyl reductase (in words) (carbonyl reductase [3]),inhibition pattern against NADPH (carbonyl reductase [3]; NADPH as varied substrate (FIG. 5B)),inhibition pattern against menadione (carbonyl reductase [3]; menadione as varied substrate (FIG. 5A)),potency as inhibitor of human carbonyl reductase (in words) (carbonyl reductase [1]),effect on cytotoxicity of daunorubicin [2]
"N#CC(=NO)c1c(F)cccc1Cl [C4, oximino(2-chloro-6-fluorophenyl)acetonitrile]",–,uncompetitive inhibitors,uncompetitive inhibitors,10.8 to 72 µM,–,–,–,–,–
